Laboratory results taken from patent publication US6750378B2, “Maize H3C4 promoter combined with the first intron of rice actin, chimeric gene comprising it and transformed plant” (Rhone-Poulenc Agro, priority 1997, dated 2004).

Experiments:
[1] = system: maize lines transformed according to the invention (H3C4 promoter + first intron of rice actin); test: Comparative study of herbicide tolerance, maize lines transformed according to the invention (rice actin intron); format: in vivo; details: 20 maize lines, spraying 200 g of active material per hectare (600 μg per tub)
Protocol: (§1) 800 ml of Fontainebleau sand are placed in a tub of sides 15×20 cm. These tubs are then sprinkled with water and kept moist by supplying a nutrient solution consisting of 5 ml of Quinoligo (Quinoline) per liter of water. Twenty maize seeds are placed in the tubs, which are then treated with isoxaflutole by spraying at a rate of 100 g of active material per hectare (300 μg of active material per tub). The tubs are then cultured in a greenhouse. The phytotoxicity is determined 14 [lacuna] after planting. […] A comparative study was carried out with 20 maize lines transformed according to the invention and 20 maize lines transformed with a corresponding gene for which the sequence encoding the first intron of rice actin has been replaced with the sequence encoding the maize adh I intron. After treating by spraying very high doses of isoxafutole at a rate of 200 g of active material per hectare (600 μg of active material per tub), the following results are obtained: […]

[2] = system: maize lines transformed with corresponding gene with maize adh I intron; test: Comparative study of herbicide tolerance, maize lines transformed with the corresponding gene with maize adh I intron; format: in vivo; details: 20 maize lines, spraying 200 g of active material per hectare (600 μg per tub)
Protocol: as §1

CS(=O)(=O)c1cc(C(F)(F)F)ccc1C(=O)c1cnoc1C1CC1 [isoxaflutole]
lines tolerant [1]: 8/20 | lines tolerant [2]: 3/20
